Holding throughout (type): binding, human
Assay [1] has as its system GST-tagged TRPM6-(1730–end) L1743A. Description: Peptide pull-down, L1743A mutant. Particulars: HEK-293 lysate, 3 μg peptide, 4°C, anti-GST immunoblot. As for the experimental part: (§1) The peptides biotin-C6-[…]-TIPFTPVQLFAGEEITV (wild-type) and biotin-C6-LKSPQE-[…] (mutant) were purchased from GL Biochem. For a peptide pull-down, 1–5 mg of lysate was incubated with 3 μg of the respective peptide for 10 min at 4°C under gentle agitation, followed by 5 min of incubation with 10–20 μl of streptavidin beads at 4°C. The immunoprecipitates were washed three times with lysis buffer containing 0.15 M NaCl and then twice with buffer A. Proteins were eluted by resuspending washed immunoprecipitates in 30 μl of SDS sample buffer. […]
(§2) Figure 3 Analysis of the dimerization pocket residues (A) Structural model of TRPM6 based on TRPM7 α-kinase depicting the binding of Leu^1718 and Leu^1721 to other residues in the α-kinase domain. […] The samples were analysed by immunoblotting with anti-GST antibody (top panel). […] (C) Fluorescence polarization analysis of the dimerization motif peptide with E. coli purified GST-tagged TRPM6-(1730–end) and indicated mutants. […] Proteins were separated by SDS/PAGE, stained with Coomassie Blue (top and middle panels) and MBP phosphorylation was detected by autoradiography (bottom panel). […] Proteins were separated by SDS/PAGE, stained with Coomassie Blue (top and middle gels) and MBP phosphorylation was detected by autoradiography (bottom gel). […]
(A western blot detects proteins with antibodies after separation by electrophoresis.)

Assay [2] concerns GST-tagged TRPM6-(1730–end) A1836N. Description: Peptide pull-down, A1836N mutant. Particulars: HEK-293 lysate, 3 μg peptide, 4°C, anti-GST immunoblot. As for the experimental part:
as §1, §2

For assay [3], the system named is GST-tagged TRPM6-(1730–end) L1919Q. Description: Peptide pull-down, L1919Q mutant. Particulars: HEK-293 lysate, 3 μg peptide, 4°C, anti-GST immunoblot. The protocol:
as §1, §2

For assay [4], the system named is full-length TRPM6 L1718A+L1721A. Description: Peptide pull-down, full-length TRPM6 L1718A+L1721A. Particulars: full-length L1718A+L1721A TRPM6, HEK-293 lysate, 3 μg peptide, 4°C; anti-FLAG immunoblot. The protocol:
The peptides biotin-C6-[…]-TIPFTPVQLFAGEEITV (wild-type) and biotin-C6-LKSPQE-[…] (mutant) were purchased from GL Biochem. For a peptide pull-down, 1–5 mg of lysate was incubated with 3 μg of the respective peptide for 10 min at 4°C under gentle agitation, followed by 5 min of incubation with 10–20 μl of streptavidin beads at 4°C. The immunoprecipitates were washed three times with lysis buffer containing 0.15 M NaCl and then twice with buffer A. Proteins were eluted by resuspending washed immunoprecipitates in 30 μl of SDS sample buffer.
Figure 2 Identification of dimerization motif residues in TRPM6 (A) Structural model of TRPM7 α-kinase depicting the N-terminal non-catalytic α-helix of one monomer that interacts with the kinase segment of the other monomer. (B) Fluorescence polarization analysis of wild-type (WT) and mutant (Mut) dimerization motif peptides with E. coli-purified GST-tagged TRPM6-(1730–end). […] The samples were analysed by immunoblotting with anti-GST antibody (top panel). […] Proteins were separated by SDS/PAGE, stained with Coomassie Blue (top and middle gels) and MBP phosphorylation was detected by autoradiography (bottom gel). […] Proteins were separated by SDS/PAGE, stained with Coomassie Blue (top and middle gels) and MBP phosphorylation was detected by autoradiography (bottom gel). […] The pull-down samples were analysed by immunoblotting with anti-FLAG antibody (top panel). […]

This note sets out measurements from paper PMC4019984, “Kinase and channel activity of TRPM6 are co-ordinated by a dimerization motif and pocket interaction” (Biochemical Journal, 2014).

On to “biotin-C6-LKSPQEPHHHYSAIERNNLMRLSQ-TIPFTPVQLFAGEEITV [biotinylated dimerization motif peptide, biotin-C6 wild-type dimerization motif peptide; conjugated to streptavidin–Sepharose]”, for which the “binding to biotinylated dimerization motif peptide (pull-down)” value in assay [1], in assay [2] and in assay [3] was “abolished binding to the peptide” throughout. Moreover, the “interaction with biotinylated dimerization motif peptide (pull-down)” value in assay [4] is listed as “rendered capable of interacting”.
